This test addresses T1, full-length TcPINK1 (1–570) (Tribolium castaneum, UniProt D6WMX4).
T1 construct: Kinetics of phosphorylation of PINKtide and indicated variants by full-length TcPINK1 (1–570); made in house; host or cells: E. coli BL21 Codon+
T1 sequence (D6WMX4 1-570): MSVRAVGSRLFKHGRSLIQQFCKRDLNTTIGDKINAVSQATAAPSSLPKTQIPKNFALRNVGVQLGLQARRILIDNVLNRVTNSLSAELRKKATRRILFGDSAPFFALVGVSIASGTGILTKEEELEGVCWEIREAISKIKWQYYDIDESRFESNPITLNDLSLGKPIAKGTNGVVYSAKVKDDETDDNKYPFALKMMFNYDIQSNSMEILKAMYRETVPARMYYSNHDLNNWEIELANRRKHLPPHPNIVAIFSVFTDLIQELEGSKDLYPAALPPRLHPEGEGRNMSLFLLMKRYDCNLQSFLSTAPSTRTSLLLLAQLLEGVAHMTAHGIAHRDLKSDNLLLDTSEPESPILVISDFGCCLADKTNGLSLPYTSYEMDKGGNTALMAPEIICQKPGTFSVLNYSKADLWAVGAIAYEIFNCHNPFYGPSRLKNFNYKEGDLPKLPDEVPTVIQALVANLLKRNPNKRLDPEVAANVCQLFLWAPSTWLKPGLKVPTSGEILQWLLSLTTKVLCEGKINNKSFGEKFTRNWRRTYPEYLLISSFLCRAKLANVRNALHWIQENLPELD
In words: Peptide substrate kinase assay: phosphorylation of PINKtide and variants, [γ-32P] ATP, P81 paper. The class given is biochemical. The settings on record: phosphorylation of the peptide substrate by full-length TcPINK1 (1–570), kinase 1 µM, 0.1 mM [γ-32P] ATP, 30°C, n.d. = peptide phosphorylated poorly, kinetic values not determinable; for Km: 10 mM MgCl2, 50 mM Tris–HCl pH 7.5, 30 min, nonlinear regression (GraphPad Prism), similar results in at least two experiments; for Vmax: 30 min, 1 U = incorporation of 1 nmol of ATP into substrate, nonlinear regression. The procedure: For assays using peptide substrates, assays were set up in a volume of 50 µl, with all kinases at 1 µM and peptide substrates at the indicated concentrations in 50 mM Tris–HCl (pH 7.5), 0.1 mM EGTA, 10 mM MgCl2, 2 mM dithiothreitol and 0.1 mM [γ-^32P] ATP. Assays were incubated for 30 min at 30°C with shaking at 1200 r.p.m., and terminated by spotting of 40 µl of the reaction mixture onto P81 phosphocellulose paper and washing in 50 mM phosphoric acid. After extensive further washing, incorporation of [γ-^32P] ATP into substrates was quantified by Cerenkov counting. For MBP assays using P81 paper, 5 µg of MBP was used.
One unit of TcPINK1 activity was defined as the amount of enzyme that catalysed the incorporation of 1 nmol of ATP into a given substrate. Km and Vmax values were determined by analysing the phosphorylation of PINKtide and its variants at various concentrations. Km and Vmax values were calculated using the GRAPHPAD PRISM program.

For 15 substances, Km and Vmax results are on record in paper PMC3352081, “Discovery of catalytically active orthologues of the Parkinson's disease kinase PINK1: analysis of substrate specificity and impact of mutations” (Open biology, 2011).

“And” between values parts separate entries of the source, which are not always exact repeats. Equal entries are not always repeated.

For the substance “KKAIpYRRSPRRR [PINKtide variant at the −5 position]”, the Km came out at 435 µM and the Vmax was 8 U mg^−1. The like results for “KKEIpYRRSPRRR [PINKtide variant at the −5 position]” were, in that order, 192 µM and 6 U mg^−1.

For “KKFIpYRRSPRRR [PINKtide variant at the −5 position]”, the Michaelis constant (Km) was 163 µM and the Vmax is listed as 3 U mg^−1. In the case of “KKKIpYRRSPRRR [PINKtide variant at the −5 position]”, the Km amounted to 165 µM and the Vmax is 2 U mg^−1. “KKLIpYRRSPRRR [PINKtide variant at the −5 position]”: the Km is 381 µM and the Vmax was determined as 5 U mg^−1. The like results for “KKWIERRSPRRR [PINKtide variant at the −3 position]” were, in that order, 36 µM and 2 U mg^−1. The like results for “KKWIFRRSPRRR [PINKtide variant at the −3 position]” were, in that order, 63 µM and 2 U mg^−1.

On to “KKWIKRRSPRRR [PINKtide variant at the −3 position]”, for which the Km stood at 50 µM and the Vmax amounted to 1 U mg^−1.

Regarding “KKWISRRSPRRR [PINKtide variant at the −3 position]”, the Km came out at 81 µM and the Vmax is on record as 3 U mg^−1. The like results for “KKWITRRSPRRR [PINKtide variant at the −3 position]” were, in that order, 278 µM and 3 U mg^−1. The like results for “KKWIYRRSPRRR [PINKtide variant at the −3 position]” were, in that order, 30 µM and 3 U mg^−1.

On to “KKWIpSRRSPRRR [PINKtide variant at the −3 position]”, for which the Km is 117 µM and the Vmax was determined as 3 U mg^−1. The like results for “KKWIpTRRSPRRR [PINKtide variant at the −3 position]” were, in that order, 970 µM and 8 U mg^−1. Take “KKWIpYRRSPRRR [PINKtide, optimal peptide substrate for TcPINK1, KKWIpYRRSPRRR]”: the Michaelis constant (Km) was 493 µM and ~500 µM. On to “KKWIpYRRTPRRR [PINKtide variant, phosphorylated Ser changed to Thr]”, for which the Km was 756 µM and the Vmax is recorded as 8 U mg^−1.
